Results: US20240116985A1, “STAPLED PEPTIDES AND METHODS THEREOF” (priority 2020, published 2024)

Tests used:
[1] = target: T1, full-length beta-Catenin (Uniprot ID P35222) (Homo sapiens, UniProt P35222); experiment: Fluorescence polarization IC50 (beta-catenin / 5FAM-TCF4 10-53 competition); format: binding; conditions: fluorescence polarization; read-out: beta-Catenin FP IC50
T1 construct: 10 nM full-length beta-Catenin (Uniprot ID P35222)
T1 sequence (P35222 1-781): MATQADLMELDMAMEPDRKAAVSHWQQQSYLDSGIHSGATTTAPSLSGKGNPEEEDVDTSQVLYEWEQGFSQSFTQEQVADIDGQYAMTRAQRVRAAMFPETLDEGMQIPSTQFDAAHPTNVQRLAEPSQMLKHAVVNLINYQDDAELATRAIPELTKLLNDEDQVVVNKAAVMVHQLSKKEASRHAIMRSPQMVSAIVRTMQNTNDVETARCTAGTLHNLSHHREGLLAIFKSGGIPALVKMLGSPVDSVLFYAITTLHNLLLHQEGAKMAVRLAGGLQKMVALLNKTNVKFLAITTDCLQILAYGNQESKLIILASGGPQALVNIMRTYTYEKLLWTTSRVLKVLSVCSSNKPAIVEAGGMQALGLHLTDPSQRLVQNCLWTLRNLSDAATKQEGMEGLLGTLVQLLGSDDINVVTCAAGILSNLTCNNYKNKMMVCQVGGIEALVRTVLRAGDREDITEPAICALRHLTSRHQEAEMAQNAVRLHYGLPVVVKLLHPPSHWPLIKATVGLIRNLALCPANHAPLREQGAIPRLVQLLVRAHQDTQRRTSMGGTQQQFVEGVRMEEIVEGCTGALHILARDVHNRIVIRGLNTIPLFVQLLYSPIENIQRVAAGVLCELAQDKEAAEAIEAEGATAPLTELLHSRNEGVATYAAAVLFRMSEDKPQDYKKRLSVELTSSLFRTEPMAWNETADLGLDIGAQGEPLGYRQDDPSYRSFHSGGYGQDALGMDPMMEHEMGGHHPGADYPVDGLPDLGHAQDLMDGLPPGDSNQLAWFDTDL

[2] = target: T2, beta-catenin/TCF4 engagement (Homo sapiens, UniProt P35222); experiment: Nano-BRET target engagement assay (B-cat-Halo & TCF4-Luc in HEK293 cells); format: cell-based; conditions: absolute IC50; read-out: NanoBRET Abs IC50
T2 construct: expressed in transfected cells; host or cells: HEK293
T2 sequence (P35222 1-781): T1 sequence (P35222 1-781)

IC50 [1] | IC50 [2] | Structure (SMILES)
22 nM | 15.3 µM | CC(=O)N1CCC[C@]12CC=CCCCC1(CCCC=CCCCCCC[C@@](C)(C(=O)N[C@@H](Cc3ccccc3)C(=O)N[C@@H](Cc3csc4ccccc34)C(=O)N[C@@H](CCC(N)=O)C(N)=O)NC(=O)[C@H](CC(C)C)NC(=O)[C@H](Cc3ccccc3)NC(=O)[C@H](C)NC(=O)[C@H](C)NC(=O)[C@H](CCC(=O)O)NC(=O)[C@H](CC(=O)O)NC1=O)NC(=O)[C@H](Cc1ccccc1)NC(=O)[C@H](CC(=O)O)NC2=O (stereo partly drawn) [I-1550, Ac-PL3-Asp-Phe-B5-Asp-Glu-Ala-Ala-Phe-Leu-S8-Phe-BztA-Gln-NH2]
16 nM | 19.8 µM | CC(=O)N1CCC[C@]12CC=CCCCC1(CCCC=CCCCCCC[C@@](C)(C(=O)N[C@@H](Cc3ccccc3)C(=O)N[C@@H](Cc3csc4ccccc34)C(=O)N[C@@H](CCC(N)=O)C(N)=O)NC(=O)[C@H](CCO)NC(=O)[C@H](Cc3ccccc3)NC(=O)[C@H](C)NC(=O)[C@H](C)NC(=O)[C@H](CCC(=O)O)NC(=O)[C@H](CC(=O)O)NC1=O)NC(=O)[C@H](Cc1ccccc1)NC(=O)[C@H](CC(=O)O)NC2=O (stereo partly drawn) [I-1551, Ac-PL3-Asp-Phe-B5-Asp-Glu-Ala-Ala-Phe-Hse-S8-Phe-BztA-Gln-NH2]
56 nM | > 20 µM | CC(=O)N1CCC[C@]12CC=CCCCC1(CCCC=CCCCCCC[C@@](C)(C(=O)N[C@@H](Cc3ccccc3)C(=O)N[C@@H](Cc3csc4ccccc34)C(=O)N[C@@H](CCC(N)=O)C(N)=O)NC(=O)[C@H](CCC(N)=O)NC(=O)[C@H](Cc3ccccc3)NC(=O)[C@H](C)NC(=O)[C@H](C)NC(=O)[C@H](CCC(=O)O)NC(=O)[C@H](CC(=O)O)NC1=O)NC(=O)[C@H](CCCCN)NC(=O)[C@H](CC(=O)O)NC2=O (stereo partly drawn) [I-1552, Ac-PL3-Asp-Lys-B5-Asp-Glu-Ala-Ala-Phe-Gln-S8-Phe-BztA-Gln-NH2]
133 nM | > 20 µM | CC(=O)N1CCC[C@]12CC=CCCCC1(CCCC=CCCCCCC[C@@](C)(C(=O)N[C@@H](Cc3ccccc3)C(=O)N[C@@H](Cc3csc4ccccc34)C(=O)N[C@@H](CCC(N)=O)C(N)=O)NC(=O)[C@H](CC(C)C)NC(=O)[C@H](Cc3ccccc3)NC(=O)[C@H](C)NC(=O)[C@H](C)NC(=O)[C@H](CCC(=O)O)NC(=O)[C@H](CC(=O)O)NC1=O)NC(=O)[C@H](CCCCN)NC(=O)[C@H](CC(=O)O)NC2=O (stereo partly drawn) [I-1553, Ac-PL3-Asp-Lys-B5-Asp-Glu-Ala-Ala-Phe-Leu-S8-Phe-BztA-Gln-NH2]
63 nM | > 20 µM | CC(=O)N1CCC[C@]12CC=CCCCC1(CCCC=CCCCCCC[C@@](C)(C(=O)N[C@@H](Cc3ccccc3)C(=O)N[C@@H](Cc3csc4ccccc34)C(=O)N[C@@H](CCC(N)=O)C(N)=O)NC(=O)[C@H](CCO)NC(=O)[C@H](Cc3ccccc3)NC(=O)[C@H](C)NC(=O)[C@H](C)NC(=O)[C@H](CCC(=O)O)NC(=O)[C@H](CC(=O)O)NC1=O)NC(=O)[C@H](CCCCN)NC(=O)[C@H](CC(=O)O)NC2=O (stereo partly drawn) [I-1554, Ac-PL3-Asp-Lys-B5-Asp-Glu-Ala-Ala-Phe-Hse-S8-Phe-BztA-Gln-NH2]
180 nM | 29.3 µM | CC(=O)N1CCC[C@]12CC=CCCCC1(CCCC=CCCCOC(=O)N3CC[C@@](C(=O)N[C@@H](Cc4ccsc4)C(=O)N[C@@H](Cc4csc5ccccc45)C(=O)N[C@@H](CCC(N)=O)C(N)=O)(C3)NC(=O)[C@H](CC(N)=O)NC(=O)[C@H](Cc3ccccc3)NC(=O)[C@H](C)NC(=O)[C@H](C)NC(=O)[C@H](CC(N)=O)NC(=O)[C@H](CC(N)=O)NC1=O)NC(=O)[C@H](CC(C)(C)C)NC(=O)[C@H](CC(=O)O)NC2=O (stereo partly drawn) [I-1555, Ac-PL3-Asp-Npg-B5-Asn-Asn-Ala-Ala-Phe-Asn-PyrS2-3Thi-BztA-Gln-NH2]
385 nM | > 20 µM | CC(=O)N1CCC[C@]12CC=CCCCC1(CCCC=CCCCOC(=O)N3CC[C@@](C(=O)N[C@@H](Cc4ccsc4)C(=O)N[C@@H](Cc4csc5ccccc45)C(=O)N[C@@H](CCC(N)=O)C(N)=O)(C3)NC(=O)[C@H](CC(N)=O)NC(=O)[C@H](Cc3ccccc3)NC(=O)[C@H](C)NC(=O)[C@H](C)NC(=O)[C@H](CC(N)=O)NC(=O)[C@H](CC(N)=O)NC1=O)NC(=O)[C@H](C)NC(=O)[C@H](CC(=O)O)NC2=O (stereo partly drawn) [I-1556, Ac-PL3-Asp-Ala-B5-Asn-Asn-Ala-Ala-Phe-Asn-PyrS2-3Thi-BztA-Gln-NH2]
342 nM | > 20 µM | CC(=O)N1CCC[C@]12CC=CCCCC1(CCCC=CCCCOC(=O)N3CC[C@@](C(=O)N[C@@H](Cc4ccsc4)C(=O)N[C@@H](Cc4csc5ccccc45)C(=O)N[C@@H](CCC(N)=O)C(N)=O)(C3)NC(=O)[C@H](CC(C)C)NC(=O)[C@H](Cc3ccccc3)NC(=O)[C@H](C)NC(=O)[C@H](C)NC(=O)[C@H](CC(N)=O)NC(=O)[C@H](CC(N)=O)NC1=O)NC(=O)[C@H](CC(C)(C)C)NC(=O)[C@H](CC(=O)O)NC2=O (stereo partly drawn) [I-1557, Ac-PL3-Asp-Npg-B5-Asn-Asn-Ala-Ala-Phe-Leu-PyrS2-3Thi-BztA-Gln-NH2]
122 nM | > 20 µM | CC(=O)N1CCC[C@]12CC=CCCCC1(CCCC=CCCCOC(=O)N3CC[C@@](C(=O)N[C@@H](Cc4ccsc4)C(=O)N[C@@H](Cc4csc5ccccc45)C(=O)N[C@@H](CCC(N)=O)C(N)=O)(C3)NC(=O)[C@H](CC(N)=O)NC(=O)[C@H](Cc3ccccc3)NC(=O)[C@H](C)NC(=O)[C@H](C)NC(=O)[C@H]([C@@H](C)O)NC(=O)[C@H](CC(N)=O)NC1=O)NC(=O)[C@H](CC(C)(C)C)NC(=O)[C@H](CC(=O)O)NC2=O (stereo partly drawn) [I-1564, Ac-PL3-Asp-Npg-B5-Asn-Thr-Ala-Ala-Phe-Asn-PyrS2-3Thi-BztA-Gln-NH2]
148 nM | > 20 µM | CC(=O)N1CCC[C@]12CC=CCCCC1(CCCC=CCCCOC(=O)N3CC[C@@](C(=O)N[C@@H](Cc4ccsc4)C(=O)N[C@@H](Cc4csc5ccccc45)C(=O)N[C@@H](CCC(N)=O)C(N)=O)(C3)NC(=O)[C@H](CC(N)=O)NC(=O)[C@H](Cc3ccccc3)NC(=O)[C@H](C)NC(=O)[C@H](C)NC(=O)[C@H]([C@@H](C)O)NC(=O)[C@H](CC(N)=O)NC1=O)NC(=O)[C@H](CC(C)(C)C)NC(=O)[C@H](CC(=O)O)NC2=O (stereo partly drawn) [I-1565, Ac-PL3-Asp-Npg-B5-Asn-Thr-Ala-Ala-Phe-Asn-PyrS2-3Thi-BztA-Gln-NH2]
231 nM | > 20 µM | CC(=O)N1CCC[C@]12CC=CCCCC1(CCCC=CCCCOC(=O)N3CC[C@@](C(=O)N[C@@H](Cc4ccsc4)C(=O)N[C@@H](Cc4csc5ccccc45)C(=O)N[C@@H](CCC(N)=O)C(N)=O)(C3)NC(=O)[C@H](CC(N)=O)NC(=O)[C@H](Cc3ccccc3)NC(=O)[C@H](C)NC(=O)[C@H](C)NC(=O)[C@H](CCC(N)=O)NC(=O)[C@H](CC(N)=O)NC1=O)NC(=O)[C@H](CC(C)(C)C)NC(=O)[C@H](CC(=O)O)NC2=O (stereo partly drawn) [I-1566, Ac-PL3-Asp-Npg-B5-Asn-Gln-Ala-Ala-Phe-Asn-PyrS2-3Thi-BztA-Gln-NH2]
182 nM | > 20 µM | CC(=O)N1CCC[C@]12CC=CCCCC1(CCCC=CCCCOC(=O)N3CC[C@@](C(=O)N[C@@H](Cc4ccsc4)C(=O)N[C@@H](Cc4csc5ccccc45)C(=O)N[C@@H](CCC(N)=O)C(N)=O)(C3)NC(=O)[C@H](CC(N)=O)NC(=O)[C@H](Cc3ccccc3)NC(=O)[C@H](C)NC(=O)[C@H](C)NC(=O)[C@H](CCC(N)=O)NC(=O)[C@H](CC(N)=O)NC1=O)NC(=O)[C@H](CC(C)(C)C)NC(=O)[C@H](CC(=O)O)NC2=O (stereo partly drawn) [I-1567, Ac-PL3-Asp-Npg-B5-Asn-Gln-Ala-Ala-Phe-Asn-PyrS2-3Thi-BztA-Gln-NH2]
20 nM | > 20 µM | CC(=O)N1CCC[C@]12CC=CCCCC1(CCCC=CCCCOC(=O)N3CC[C@@](C(=O)N[C@@H](Cc4ccccc4Cl)C(=O)N[C@@H](Cc4csc5ccccc45)C(=O)N[C@@H](CCC(N)=O)C(N)=O)(C3)NC(=O)[C@H](CC(N)=O)NC(=O)[C@H](Cc3ccccc3)NC(=O)[C@H](C)NC(=O)[C@H](C)NC(=O)[C@H](CNCC(=O)O)NC(=O)[C@H](CC(=O)O)NC1=O)NC(=O)[C@H](CC(C)(C)C)NC(=O)[C@H](CC(=O)O)NC2=O (stereo partly drawn) [I-1572, Ac-PL3-Asp-Npg-B5-Asp-GA-Ala-Ala-Phe-Asn-PyrS2-2C1F-BztA-Gln-NH2]
15 nM | > 20 µM | C[C@@H]1NC(=O)[C@H](C)NC(=O)[C@H](CC(=O)O)NC(=O)[C@H](CC(=O)O)NC(=O)C2(CCCC=CCCCOC(=O)N3CC[C@@](C(=O)N[C@@H](Cc4ccsc4)C(=O)N[C@@H](Cc4csc5ccccc45)C(=O)N[C@@H](CCC(N)=O)C(N)=O)(C3)NC(=O)[C@H](CC(N)=O)NC(=O)[C@H](Cc3ccccc3)NC1=O)CCCC=CCCC(=O)OC1CC(C(=O)N[C@@H](CC(=O)O)C(=O)N[C@@H](CC(C)(C)C)C(=O)N2)N(S(C)(=O)=O)C1 (stereo partly drawn) [I-1574, MeSO2-HypEs5-Asp-Npg-B5-Asp-Asp-Ala-Ala-Phe-Asn-PyrS2-3Thi-BztA-Gln-NH2]
